Data from patent US11680047B2, “Enhanced erythropoiesis and iron metabolism” (FibroGen, Inc., priority 2003, dated 2023).

Legend:
Assay type in all cases: in vivo
rat model of ACD = test: Rat model of ACD (PG-PS), Experimental Series 2
Method: Female Lewis rats (approximately 150-200 gm) were injected with PG-PS (intra-peritoneal). Arthritis and anemia were allowed to develop for 28 days. Animals were administered compound A by oral gavage twice a week (Monday and Thursday) for six weeks, corresponding to days 28, 31, 35, 38, 42, 45, 49, 52, 56, 59, 63, 66, and 70 from PG-PS injection.
Whole blood was collected via the tail vein for CBC analysis on days 28, 42, 56, and 70. In addition, serum was collected on day 70 for iron binding analysis. CBC and iron binding analysis were performed by Quality Clinical Labs (Mountain View, Calif.).
Patients with anemia of chronic disease are clinically characterized by reduced plasma iron concentrations and transferrin saturation. The effect of the present compounds on serum iron and transferrin saturation in normal and anemic animals was determined. Using an animal model of anemia of chronic disease, anemia was induced in rats by IP injection of peptidoglycan-polysaccharide polymers, as described above. Arthritis and anemia were allowed to develop for 28 days. Animals were then treated with various concentrations of compound A, twice weekly, for 6 weeks. Serum iron levels and transferrin saturation were determined by Quality Clinical Labs.

Ceruloplasmin = Ceruloplasmin mRNA expression in mouse kidney (microarray); conditions: single dose 100 mg/kg
Method: (§1) Compounds were generally administered orally by gavage or IV administration. Animals treated by oral gavage received a 4-10 ml/kg volume of either 0.5% carboxymethyl cellulose (CMC; Sigma-Aldrich, St. Louis Mo.) with or without 0.1% Polysorbate 80 (0 mg/kg/day) or varying doses of a compound of the present invention (e.g., a HIF prolyl hydroxylase inhibitor) in 0.5% CMC, with or without 0.1% Polysorbate 80, using various dosing regimens. Blood samples were collected at appropriate intervals during treatment from, e.g., tail vein (rats), or abdominal vein or cardiocentesis (mice or rats). Generally, animals were anesthetized with isoflurane and blood samples were collected into MICROTAINER serum separator tubes (Becton-Dickinson, Franklin Lakes N.J.). For measurement of serum components, the tubes were incubated at room temperature for 30 minutes, and then centrifuged at 8,000 rpm at 4° C. for 10 minutes. The serum fraction was then processed and analyzed for the presence of specific components, e.g., serum iron (assay performed by Quality Clinical Labs, Mountain View, Calif.). For determination of hematocrit, blood samples were collected into MICROTAINER EDTA-2K tubes (Becton-Dickinson); EDTA-blood was then drawn into 75 mm×1.1-1.2 mm I.D. capillary tubes (Chase Scientific Glass, Inc., Rockwood Tenn.) to approximately % length, one end of the tube was sealed with CRITOSEAL sealant (Sherwood Medical Company), and the tubes were centrifuged in a J-503M MICROHEMATOCRIT centrifuge (Jorgensen Laboratories, Inc., Loveland Colo.) at 12,000 rpm for 5 minutes. Hematocrit was read against a reader card. When indicated, complete blood count (CBC) analysis, including blood hemoglobin level, reticulocyte number, and hematocrit, was performed by Quality Clinical Labs (Mountain View, Calif.).
(§2) Swiss Webster male mice were treated as described above with a single dose of 0.5% CMC (Sigma-Aldrich) (0 mg/kg) or 100 mg/kg compound A. At 4, 8, 16, 24, 48, or 72 hours post-administration, animals were anesthetized, sacrificed, and tissue samples of kidney, liver, brain, lung, and heart were isolated and stored in RNALATER solution (Ambion) at −80° C. Alternatively, animals were treated to 4 consecutive daily doses of 0.5% CMC (0 mg/kg/day), 7.5 mg/ml compound A in 0.5% CMC (30 mg/kg/day), or 25 mg/ml compound A in 0.5% CMC (100 mg/kg/day). Four hours after administration of the final dose, animals were anesthetized, sacrificed, and approximately 150 mg of liver and each kidney were isolated and stored in RNALATER solution (Ambion) at −20° C.
(§3) RNA isolation was carried out using the following protocol. A section of each organ was diced, 875 μl of RLT buffer (RNEASY kit; Qiagen Inc., Valencia Calif.) was added, and the pieces were homogenized for about 20 seconds using a rotor-stator POLYTRON homogenizer (Kinematica, Inc., Cincinnati Ohio). The homogenate was micro-centrifuged for 3 minutes to pellet insoluble material, the supernatant was transferred to a new tube and RNA was isolated using an RNEASY kit (Qiagen) according to the manufacturer's instructions. The RNA was eluted into 80 μL of water and quantitated with RIBOGREEN reagent (Molecular Probes, Eugene Oreg.). The absorbance at 260 and 280 nm was measured to determine RNA purity and concentration.
(§4) Alternatively, tissue samples were diced and homogenized in TRIZOL reagent (Invitrogen Life Technologies, Carlsbad Calif.) using a rotor-stator POLYTRON homogenizer (Kinematica). Homogenates were brought to room temperature, 0.2 volumes chloroform was added, and samples were mixed vigorously. Mixtures were incubated at room temperature for several minutes and then were centrifuged at 12,000 g for 15 min at 4° C. The aqueous phase was collected and 0.5 volumes of isopropanol were added. Samples were mixed, incubated at room temperature for 10 minutes, and centrifuged for 10 min at 12,000 g at 4° C. […]

healthy human volunteers = test: Erythropoiesis and iron status in healthy human volunteers; conditions: human subjects; for soluble transferrin receptor levels, maximum response: day 21
Description: The effect of prolyl hydroxylase inhibition on erythropoiesis in human subjects was examined as follows. […] At various times following compound administration, blood was drawn for analysis of EPO, hemoglobin, hematocrit, red blood cell counts, soluble transferrin receptor, and serum ferritin levels.

Hepcidin = Hepcidin mRNA expression in mouse liver (microarray)
Method: as §1, §2, §3, §4

[1] = anemic rats, twice a week for six weeks

## O=C(O)CNC(=O)c1nc(Cl)c2ccccc2c1O [Compound A, [(1-Chloro-4-hydroxy-isoquinoline-3-carbonyl)-amino]-acetic acid]
Rat model of ACD; anemic (PG-PS) and non-anemic control (sham) rats, twice weekly, 6 weeks
  serum iron levels: increased serum iron levels
Rat model of ACD; anemic rats, 10 mg/kg, 20 mg/kg or 40 mg/kg twice weekly
  hemoglobin levels: hemoglobin levels increased
Rat model of ACD; anemic rats, from 2 weeks, over the 6 week period
  red blood cell counts: red blood cell counts were increased
Rat model of ACD; anemic rats, oral gavage twice a week
  hematocrit levels: increased hematocrit levels
Rat model of ACD; [1]
  mean corpuscular hemoglobin levels: reduction in the decrease in mean corpuscular hemoglobin levels
  mean corpuscular volume: reduction of the decrease in mean corpuscular volume
Rat model of ACD; non-anemic rats, 40 mg/kg twice a week
  hemoglobin levels: approximately 110 % of that in non-treated control animals
Rat model of ACD; non-challenged (non-anemic) rats, 40 mg/kg twice a week
  hematocrit levels: greater than 110 % of that in non-challenged non-treated animals
Rat model of ACD; vs non-treated non-anemic and non-treated anemic rats, twice weekly, 6 weeks
  transferrin saturation: increased transferrin saturation
Ceruloplasmin; 4 hours
  Ceruloplasmin (relative mRNA levels): 1.16
Ceruloplasmin; 8 hours
  Ceruloplasmin (relative mRNA levels): 1.39
Ceruloplasmin; 16 hours
  Ceruloplasmin (relative mRNA levels): 1.22
Ceruloplasmin; 24 hours
  Ceruloplasmin (relative mRNA levels): 2.45
Ceruloplasmin; 48 hours
  Ceruloplasmin (relative mRNA levels): 1.44
Ceruloplasmin; 72 hours
  Ceruloplasmin (relative mRNA levels): 2.10
Healthy human volunteers; 20 mg/kg twice weekly or three-times per week
  red blood cell count: increased red blood cell count in human subjects
Healthy human volunteers; 2-times per week
  soluble transferrin receptor levels, maximum response: 35%
Healthy human volunteers; 3-times per week
  soluble transferrin receptor levels, maximum response: 31%
Healthy human volunteers; oral 20 mg/kg
  decrease of serum ferritin levels: approximately 46%
Healthy human volunteers; oral 20 mg/kg twice or three-times weekly
  Reticulocyte levels: > 1.7 % of red blood cells
Healthy human volunteers; twice weekly for three weeks
  hematocrit levels: greater than 46%
Hepcidin; animal study I, multi high dose
  Hepcidin (relative mRNA levels): 0.275
Hepcidin; animal study II, multi high dose
  Hepcidin (relative mRNA levels): 0.703
Hepcidin; animal study II, multi low dose
  Hepcidin (relative mRNA levels): 0.129
Hepcidin; animal study III, 4 hour
  Hepcidin (relative mRNA levels): 0.672
Hepcidin; animal study III, 8 hour
  Hepcidin (relative mRNA levels): 0.305
Hepcidin; animal study III, 16 hour
  Hepcidin (relative mRNA levels): 0.119
